Assay results from US20110280939A1 (EVEREST PHARM. INDUSTRIAL CO., LTD., priority 2007, published 2011).
Structures can show the parent of a compound that is named as a salt.

Assay: average excretion half time in human body

CN[C@@H](C)[C@@H](O)c1ccccc1 [pseudoephedrine hydrochloride]
average excretion half time: 4.76 ± 0.44 h
